Assay results published in patent publication US12576073B2, “Antiarrhythmic formulation” (InCarda Therapeutics, Inc., priority 2019, dated 2026).
≈ marks a conversion by molar mass, not a printed value. Where a name gives a salt, the structure may show the parent alone. Read-outs that look alike come from different tables or passages of the source.

Key:
Beagle dogs = assay: 14-day repeat dose face mask inhalation toxicity study in dogs; conditions: dog, in vivo
Text: This example describes a 14-day repeated-dose toxicity study via face mask inhalation with 14 day recovery in dogs.
In addition to the aerosol drug concentration, the aerosol particle size distribution was also characterized. The particle size average MMAD and GSD for the Low-, Mid-, and High-dose groups were 2.38 (1.79), 2.03 (1.87) and 2.08 (1.79) microns, respectively, and 1.74 (1.88) microns for vehicle control group. […] Chamber oxygen levels were monitored throughout the exposures. Main study animals were sacrificed on Day 15. Recovery animals were sacrificed on Day 29 following a 14-day recovery period. Endpoints included clinical observations, body weights, ophthalmology, clinical pathology, urinalysis, gross pathology, histopathology, and bioanalytical and toxicokinetic analyses.

[1] = test system: patients with recent onset of symptomatic paroxysmal atrial fibrillation; assay: FLE-002 (INSTANT) Phase 2 study: conversion of AF to sinus rhythm; type: in vivo, human; conditions: within 60 minutes of dosing, evaluable patients
Text: Patient eligibility for this study is generally consistent with eligibility for IV flecainide. 18 years and older, both male and female sexes are eligible for this study. Inclusion and exclusion criteria are summarized in TABLE 18A and TABLE 18B, respectively.
The study consists of 2 parts: Part A and Part B. Part A (dose finding) evaluates the feasibility of administration of IH Flec. Part B will confirm the dose and will include a pilot sub-study to simulate a patient led scenario with medical supervision.
Part A study. […] IH Flec formulations tested in this study include the ones listed in TABLE 19 (*, “CD” denotes a cyclodextrin-based formulation including 10% (w/v) hydroxypropyl β-cyclodextrin, 90 mM acetic acid buffer, and having a pH of 5.2; **, “iCD-SAC” denotes a cyclodextrin-based formulation including 20% β(w/v) hydroxypropyl β-cyclodextrin, 5 mM acetic acid, and 750 μM saccharin, and having a pH of 5.9).
In this study, for inhalation delivery of flecainide, the estimated total lung doses (eTLDs) were calculated to account for losses of flecainide in the inhalation device and losses of flecainide in subjects' mouth and throat. eTLD was thereby used to denote the dose that actually reached the lungs of the subjects. By design, in all nebulizers there can be a residual volume or mass of drug solution that stays in the nebulizer, and there can also be a percentage of the aerosol caught by subject's throat and mouth. For instance, in this study, it was estimated that 30% of the aerosol was lost in subject's throat and mouth. Therefore the eTLD would be: eTLD=(100−30)%*amount of aerosolized drug that left nebulizer=70%*(amount of drug placed in nebulizer−amount of drug staying in nebulizer).
The AeroEclipse®II BAN inhaler was used for nebulization and inhalation of the exemplary flecainide formulations. It is available as an approved device in several countries across the world including European countries, USA, and Canada. […]

[2] = test system: patients with recent onset of symptomatic paroxysmal atrial fibrillation; assay: FLE-002 (INSTANT) study: QRS interval from 12-lead ECG; type: in vivo, human; conditions: change from baseline
[3] = FLE-002 (INSTANT) study: plasma levels of flecainide (Cmax); type: in vivo; conditions: human, inhaled, oral inhalation
[4] = Solubility of flecainide in D/L-lactic acid media; type: physicochemical; conditions: thermodynamic from solid
Method: D-lactic acid, L-lactic acid, or DL-lactic acid was slowly added portionwise to the suspension while stirring. The system was left to equilibrate for 30 minutes, and the pH was determined. The pH was then adjusted to 5.2-6 with NaOH if necessary. After addition of NaOH, the system was again left to equilibrate for 30 minutes before pH was measured. After the desired pH was achieved, the suspension was stirred (1000 rpm) at ambient temperature for 48 hours. At 24 hours and 48 hours of stirring, samples of each solution were centrifuged at 10000 rpm for 2 minutes and filtered with a 0.45 μm membrane to obtain supernatant for pH determination and HPLC analysis. Solids from each sample were also characterized by X-ray powder diffraction (XRPD) analysis.

[5] = test system: patients with recent onset of symptomatic paroxysmal atrial fibrillation; conditions: inhaled, Total of all dose groups (N = 99)
physchem [6] = type: physicochemical; conditions: Solubility (mg/mL)
physchem [7] = conditions: thermodynamic from solid
Text: The suspension was then magnetic stirred (1000 r/min) at RT for 24 hrs or 48 hrs.

[8] = Viscosity and complexation efficiency of flecainide acetate-HPβCD solutions; type: physicochemical; conditions: solutions adjusted to pH 5.2 with NaOH
Text: In this example and the following examples, the (HP)-β-cyclodextrin used is “Cavitron W7 HP7 PHARMA”. The manufacturer (Ashland) specifies: <1.5% beta cyclodextrin (our batch had 1%) and molar substitution is between 0.86 and 1.14 (our batch had 1.05). From the manufacturer's brochure, the typical degree of substitution is 6.0 to 8.0 with an approximate average MW of 1520.
Beyond this concentration, the aerosol output rate can diminish slightly.

physchem [9] = conditions: aqueous buffer
physchem [10] = assay: physchem
[11] = Solubility comparison of different flecainide salts in 0.1M acid media; conditions: for pH: Media (0.1M)
[12] = Solubility of flecainide acetate in binary, ternary and quaternary acid mixtures; conditions: acid mixture (acetic/nitric/sulfuric acid), 25 °C, aqueous buffer, thermodynamic from solid

O=C(NCC1CCCCN1)c1cc(OCC(F)(F)F)ccc1OCC(F)(F)F (stereo not shown) [flecainide]
clinical observation associated with exposure (Beagle dogs): labored respiration during or immediately post exposure | Conversion Rate (AF to SR) ([1]; 30 mg eTLD): 1/10 (10%) | Conversion Rate (AF to SR) ([1]; 60 mg eTLD): 7/20 (35%) | Conversion Rate (AF to SR) ([1]; 90 mg eTLD): 7/21 (33%) | ΔQRSmax ([2]; 30 mg eTLD): 5.5 ± 13.1 ms | ΔQRSmax ([2]; 60 mg eTLD): 4.2 ± 4.6 ms | ΔQRSmax ([2]; 90 mg eTLD): 4.1 ± 3.2 ms | Cmax ([3]; 30 mg, 30 mg eTLD, read-out: Cmax (mean ± SD)): 127 ± 99.5 ng/mL | Cmax ([3]; 30 mg, 30 mg eTLD, read-out: Cmax Range): 5.8 to 69 ng/mL | Cmax ([3]; 60 mg, 60 mg eTLD, read-out: Cmax (mean ± SD)): 199 ± 222 ng/mL | Cmax ([3]; 60 mg, 60 mg eTLD, read-out: Cmax Range): 6.6 to 817 ng/mL | Cmax ([3]; 90 mg, 90 mg eTLD, read-out: Cmax (mean ± SD)): 248 ± 207 ng/mL | Cmax ([3]; 90 mg, 90 mg eTLD, read-out: Cmax Range): 17 to 834 ng/mL | solubility at 24 h ([4]; 20% w/v HPβCD in water with D-lactic acid, aqueous with cosolvent or surfactant or cyclodextrin, 20% w/v HPβCD, D-lactic acid, pH 5.8): 84.8 mg/mL (≈ 205 mM) | solubility at 48 h ([4]; 20% w/v HPβCD in water with D-lactic acid, aqueous with cosolvent or surfactant or cyclodextrin, 20% w/v HPβCD, D-lactic acid, pH 5.5): 88.4 mg/mL (≈ 213 mM) | solubility at 24 h ([4]; 20% w/v HPβCD in water with L-lactic acid, aqueous with cosolvent or surfactant or cyclodextrin, 20% w/v HPβCD, L-lactic acid, pH 6.3): 87.6 mg/mL (≈ 211 mM) | solubility at 48 h ([4]; 20% w/v HPβCD in water with L-lactic acid, aqueous with cosolvent or surfactant or cyclodextrin, 20% w/v HPβCD, L-lactic acid, pH 6): 89.3 mg/mL (≈ 216 mM) | solubility at 24 h ([4]; HPβCD solution with DL-lactic acid, aqueous with cosolvent or surfactant or cyclodextrin, 20% w/v HPβCD, DL-lactic acid, pH 6.5): 72.4 mg/mL (≈ 175 mM) | solubility at 24 h ([4]; pure water with D-lactic acid, aqueous buffer, no excipient (pure water), D-lactic acid, pH 5.1): 90.1 mg/mL (≈ 217 mM) | solubility at 48 h ([4]; pure water with D-lactic acid, aqueous buffer, no excipient (pure water), D-lactic acid, pH 5.4): 91 mg/mL (≈ 220 mM) | solubility at 24 h ([4]; pure water with DL-lactic acid, aqueous buffer, no excipient (pure water), DL-lactic acid, pH 6.1): 76.3 mg/mL (≈ 184 mM) | solubility at 48 h ([4]; pure water with DL-lactic acid, aqueous buffer, no excipient (pure water), DL-lactic acid, pH 6): 73.4 mg/mL (≈ 177 mM) | solubility at 24 h ([4]; pure water with L-lactic acid, aqueous buffer, no excipient (pure water), L-lactic acid, pH 5.6): 96.6 mg/mL (≈ 233 mM) | solubility at 48 h ([4]; pure water with L-lactic acid, aqueous buffer, no excipient (pure water), L-lactic acid, pH 5.1): 97.8 mg/mL (≈ 236 mM) | Adverse events: Cough [5]: 51 (52) n (%) | Adverse events: Dizziness [5]: 5 (5) n (%) | Adverse events: Dysphagia [5]: 9 (9) n (%) | Adverse events: Dyspnea [5]: 6 (6) n (%) | Adverse events: Gastrointestinal disorders [5]: 23 (23) n (%) | Adverse events: Hypotension [5]: 7 (7) n (%) | Adverse events: Nervous system disorders [5]: 7 (7) n (%) | Adverse events: Oropharyngeal pain [5]: 14 (14) n (%) | Adverse events: Respiratory, thoracic and mediastinal disorders [5]: 60 (61) n (%) | Adverse events: Salivary hypersecretion [5]: 8 (8) n (%) | Adverse events: Throat irritation [5]: 12 (12) n (%) | Adverse events: Vascular disorders [5]: 10 (10) n (%) | Patients with at least one TEAE [5]: 80 (81) n (%) | Patients with at least one TEAE, Moderate or Severe [5]: 35 (35) n (%) | Patients with at least one TEAE, Severe [5]: 2 (2) n (%) | Patients with at least one TEAE, Study-drug Related [5]: 74 (75) n (%) | Patients with at least one TESAE [5]: 7 (7) n (%) | Patients with at least one TESAE, Moderate or Severe [5]: 6 (6) n (%) | Patients with at least one TESAE, Severe [5]: 2 (2) n (%) | Patients with at least one TESAE, Study-drug Related [5]: 4 (4) n (%)

O=C(NCC1CCCCN1)c1cc(OCC(F)(F)F)ccc1OCC(F)(F)F (stereo not shown) [flecainide acetate]
solubility (physchem [6]; pH 5.3, aqueous with cosolvent or surfactant or cyclodextrin): 55 mg/mL | solubility (physchem [6]; pH 5.5, aqueous with cosolvent or surfactant or cyclodextrin): 69.7 mg/mL | solubility at 48 h (physchem [7]; aqueous with cosolvent or surfactant or cyclodextrin, 48 hrs Flecainide Acetate Solubility): 110 mg/mL | solubility at 24 h (physchem [7]; aqueous with cosolvent or surfactant or cyclodextrin, maximum solubility, calculated as freebase): 125 mg/mL | solubility at 48 h (physchem [7]; aqueous with cosolvent or surfactant or cyclodextrin, solubility (48 hrs), calculated as freebase): 105 mg/mL | solubility at 48 h (physchem [7]; water, 48 hrs Flecainide Acetate Solubility): 65.5 mg/mL | solubility (physchem [7]; water, solubility of flecainide acetate water solution): ~60 mg/mL | HPβCD molecules complexed with flecainide acetate [8]: 80% | solubility (physchem [9]): 64 mg/mL | solubility (physchem [10]; HPβCD solution with acetic acid, pH 4.9, aqueous with cosolvent or surfactant or cyclodextrin): 136 mg/mL | solubility (physchem [10]; HPβCD solution with acetic acid, pH 5.1, aqueous with cosolvent or surfactant or cyclodextrin): 135 mg/mL | solubility (physchem [10]; HPβCD solution with acetic acid, pH 5.2, aqueous with cosolvent or surfactant or cyclodextrin): 135 mg/mL | solubility (physchem [10]; HPβCD solution with acetic acid, pH 5.5, aqueous with cosolvent or surfactant or cyclodextrin): 131 mg/mL | solubility (physchem [10]; HPβCD solution without acetic acid, pH 6.3, aqueous with cosolvent or surfactant or cyclodextrin): 125 mg/mL | pH [11]: 4.6 | effect of addition of sodium chloride (e.g. saline) to the formulation ([11]; XRPD confirmed form conversion): precipitation and loss of solubility | solubility [12]: 82.4 mg/mL

O=C(NCC1CCCCN1)c1cc(OCC(F)(F)F)ccc1OCC(F)(F)F (stereo not shown) [Hydrochloric Acid, flecainide hydrochloride]
solubility (physchem [9]; Concentration (mg/mL) Freebase): 5.34 mg/mL | pH ([11]; hydrochloride): 5.0

flecainide nitrate [Nitric Acid]
pH [11]: 4.0
